These results are taken from patent publication US11208412B2 (DAEGU-GYEONGBUK MEDICAL INNOVATION FOUNDATION, priority 2017, dated 2021).

What all share (assay): Kinase selectivity, DiscoverX scanMAX Kinase assay panel (% control)
What all share (type): binding

Test [1] addresses T1, kinases of the scanMAX Kinase assay panel (Homo sapiens, UniProt O15197).
T1 construct: purchased DiscoverX Co. (contract measurement) scanMAX Kinase assay panel
T1 sequence (O15197 32-1021): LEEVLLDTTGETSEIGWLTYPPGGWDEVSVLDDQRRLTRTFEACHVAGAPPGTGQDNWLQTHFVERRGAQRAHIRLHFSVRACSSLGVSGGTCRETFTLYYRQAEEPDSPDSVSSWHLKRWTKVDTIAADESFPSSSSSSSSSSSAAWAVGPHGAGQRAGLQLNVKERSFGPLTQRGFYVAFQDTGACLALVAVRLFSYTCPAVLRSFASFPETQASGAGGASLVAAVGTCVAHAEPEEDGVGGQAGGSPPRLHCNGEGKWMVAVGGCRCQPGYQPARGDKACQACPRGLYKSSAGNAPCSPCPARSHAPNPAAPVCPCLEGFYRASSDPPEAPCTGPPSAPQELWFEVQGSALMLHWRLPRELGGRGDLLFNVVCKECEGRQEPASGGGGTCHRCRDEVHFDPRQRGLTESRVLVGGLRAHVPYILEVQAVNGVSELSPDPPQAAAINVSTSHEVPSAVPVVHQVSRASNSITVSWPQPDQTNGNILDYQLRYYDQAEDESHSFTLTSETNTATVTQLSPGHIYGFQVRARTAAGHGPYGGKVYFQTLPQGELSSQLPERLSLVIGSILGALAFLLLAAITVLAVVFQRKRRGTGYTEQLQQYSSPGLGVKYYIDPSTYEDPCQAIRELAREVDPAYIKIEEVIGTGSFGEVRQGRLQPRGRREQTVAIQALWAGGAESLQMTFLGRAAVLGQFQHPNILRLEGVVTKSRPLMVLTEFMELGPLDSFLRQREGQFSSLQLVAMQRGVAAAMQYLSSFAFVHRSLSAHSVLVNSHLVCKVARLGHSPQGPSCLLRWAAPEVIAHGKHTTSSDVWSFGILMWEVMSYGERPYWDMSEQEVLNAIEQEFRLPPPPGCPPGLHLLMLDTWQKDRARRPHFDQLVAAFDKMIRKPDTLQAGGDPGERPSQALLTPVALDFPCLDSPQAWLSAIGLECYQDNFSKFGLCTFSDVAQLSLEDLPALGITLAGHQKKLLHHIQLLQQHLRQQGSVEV
To be noted: EPHB6; 1 uM. A digest of the protocol:
(§1)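 Compounds tested at 1 uM against the scanMAX kinase panel. Signal expressed as % control = (compound − positive control)/(DMSO negative control − positive control) × 100, where positive control = 0% and DMSO = 100%; below 35% counted as activity on that kinase.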

Test [2] addresses T2, kinases of the scanMAX Kinase assay panel (Homo sapiens, UniProt Q04759).
T2 construct: purchased DiscoverX Co. (contract measurement) scanMAX Kinase assay panel
To be noted: PRKCQ; 1 uM. In outline: as §1

Test [3] has as its target T3, kinases of the scanMAX Kinase assay panel (Homo sapiens, UniProt Q52WX2).
T3 construct: purchased DiscoverX Co. (contract measurement) scanMAX Kinase assay panel
To be noted: kinase SBK1; 1 uM in DMSO. A digest of the protocol:
as §1

The target of test [4] is T4, kinases of the scanMAX Kinase assay panel (Homo sapiens, UniProt Q96GD4).
T4 construct: purchased DiscoverX Co. (contract measurement) scanMAX Kinase assay panel
To be noted: AURKB; 1 uM. In outline:
as §1

Test [5] has as its target T5, kinases of the scanMAX Kinase assay panel (Homo sapiens, UniProt Q9NRM7).
T5 construct: purchased DiscoverX Co. (contract measurement) scanMAX Kinase assay panel
T5 sequence (Q9NRM7 1-1088): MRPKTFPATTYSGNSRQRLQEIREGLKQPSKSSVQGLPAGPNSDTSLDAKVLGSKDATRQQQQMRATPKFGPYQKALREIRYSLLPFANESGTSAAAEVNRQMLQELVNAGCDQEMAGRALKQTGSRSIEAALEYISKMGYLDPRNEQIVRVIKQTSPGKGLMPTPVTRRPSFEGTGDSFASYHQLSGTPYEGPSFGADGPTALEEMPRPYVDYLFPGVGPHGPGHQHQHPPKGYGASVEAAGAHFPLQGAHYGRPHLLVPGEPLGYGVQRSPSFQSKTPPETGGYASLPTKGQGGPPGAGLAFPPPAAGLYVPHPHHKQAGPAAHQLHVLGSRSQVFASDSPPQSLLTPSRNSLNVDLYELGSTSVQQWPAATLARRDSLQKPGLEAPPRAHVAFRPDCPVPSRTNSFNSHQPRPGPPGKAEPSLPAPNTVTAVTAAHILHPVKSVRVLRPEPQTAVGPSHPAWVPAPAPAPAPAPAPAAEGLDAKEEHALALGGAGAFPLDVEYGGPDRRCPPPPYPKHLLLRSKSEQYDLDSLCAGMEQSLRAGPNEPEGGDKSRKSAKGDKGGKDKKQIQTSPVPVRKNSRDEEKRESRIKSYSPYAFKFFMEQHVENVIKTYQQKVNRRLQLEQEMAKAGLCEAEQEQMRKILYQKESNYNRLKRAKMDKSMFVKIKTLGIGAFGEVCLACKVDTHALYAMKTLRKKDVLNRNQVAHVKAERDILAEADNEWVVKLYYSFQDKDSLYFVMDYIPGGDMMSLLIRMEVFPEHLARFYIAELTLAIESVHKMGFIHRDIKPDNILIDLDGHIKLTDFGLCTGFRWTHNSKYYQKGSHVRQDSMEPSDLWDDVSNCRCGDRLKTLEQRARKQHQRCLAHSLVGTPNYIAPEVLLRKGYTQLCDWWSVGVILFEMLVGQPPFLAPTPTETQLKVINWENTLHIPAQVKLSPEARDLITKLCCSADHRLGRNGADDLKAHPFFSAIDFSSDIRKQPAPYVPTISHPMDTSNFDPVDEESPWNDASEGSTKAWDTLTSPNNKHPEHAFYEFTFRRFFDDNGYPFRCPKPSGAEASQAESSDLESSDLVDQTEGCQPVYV
To be noted: LATS2; 1 uM. A digest of the protocol: as §1

T2 sequence (Q04759 whole entry): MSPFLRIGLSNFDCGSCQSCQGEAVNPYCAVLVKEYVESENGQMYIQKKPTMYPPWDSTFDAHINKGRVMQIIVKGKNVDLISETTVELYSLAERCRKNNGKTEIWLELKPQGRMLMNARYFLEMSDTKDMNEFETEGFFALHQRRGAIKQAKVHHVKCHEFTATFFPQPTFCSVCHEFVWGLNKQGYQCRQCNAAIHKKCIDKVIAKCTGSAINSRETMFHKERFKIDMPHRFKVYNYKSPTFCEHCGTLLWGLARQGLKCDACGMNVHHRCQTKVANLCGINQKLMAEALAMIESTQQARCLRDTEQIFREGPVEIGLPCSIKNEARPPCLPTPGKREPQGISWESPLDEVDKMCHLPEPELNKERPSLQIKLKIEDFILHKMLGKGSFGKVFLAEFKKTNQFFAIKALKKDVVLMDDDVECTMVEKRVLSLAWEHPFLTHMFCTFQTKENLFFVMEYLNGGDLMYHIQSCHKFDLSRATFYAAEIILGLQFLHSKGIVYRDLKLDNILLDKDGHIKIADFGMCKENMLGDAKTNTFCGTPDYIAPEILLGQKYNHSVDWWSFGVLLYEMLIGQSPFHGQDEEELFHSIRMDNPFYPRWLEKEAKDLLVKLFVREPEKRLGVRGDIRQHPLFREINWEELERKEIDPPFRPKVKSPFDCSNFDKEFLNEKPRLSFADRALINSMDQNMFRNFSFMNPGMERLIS
T4 sequence (Q96GD4 whole entry): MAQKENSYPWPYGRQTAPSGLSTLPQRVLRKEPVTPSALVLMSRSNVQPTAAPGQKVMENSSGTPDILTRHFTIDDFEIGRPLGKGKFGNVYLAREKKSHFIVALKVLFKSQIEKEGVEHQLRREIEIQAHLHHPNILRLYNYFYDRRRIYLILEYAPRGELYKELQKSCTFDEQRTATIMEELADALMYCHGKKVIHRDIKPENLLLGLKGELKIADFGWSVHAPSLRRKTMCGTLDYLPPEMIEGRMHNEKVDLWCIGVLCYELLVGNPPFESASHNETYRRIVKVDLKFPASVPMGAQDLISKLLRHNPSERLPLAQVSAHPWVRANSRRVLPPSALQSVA
T3 sequence (Q52WX2 whole entry): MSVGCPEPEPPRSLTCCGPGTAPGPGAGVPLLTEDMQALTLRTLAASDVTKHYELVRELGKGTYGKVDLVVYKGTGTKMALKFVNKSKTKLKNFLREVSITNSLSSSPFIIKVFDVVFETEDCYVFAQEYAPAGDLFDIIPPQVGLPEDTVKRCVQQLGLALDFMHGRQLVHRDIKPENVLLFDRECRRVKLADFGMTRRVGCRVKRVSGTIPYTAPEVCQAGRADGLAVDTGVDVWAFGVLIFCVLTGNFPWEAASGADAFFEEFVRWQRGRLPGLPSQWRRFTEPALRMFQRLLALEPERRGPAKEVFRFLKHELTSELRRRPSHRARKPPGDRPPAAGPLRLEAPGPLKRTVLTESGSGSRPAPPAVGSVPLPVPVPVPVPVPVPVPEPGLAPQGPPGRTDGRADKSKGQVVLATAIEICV

Turning to `CC1(Nc2nc(Nc3cnn([C@H]4CCN(C5COC5)C[C@@H]4F)c3Cl)nc3[nH]cc(C#N)c23)CC1` [Example 52, 2-((5-chloro-1-((3S,4S)-3-fluoro-1-(oxetane-3-yl)piperidine-4-yl)-1H-pyrazole-4-yl)amino)((1-methylcyclopropyl)amino)-7H-pyrrolo[2,3-d]pyrimidine-5-carbonitrile], the remaining binding at 1 µM in test [1] was 3.7%; in test [2], 47%; in test [3], 21%; in test [4], 14%; in test [5], 11%.

Regarding `CCNc1nc(Nc2ccc(C(=O)N3CCC(N4CCOCC4)CC3)cc2OC)nc2[nH]cc(C(F)(F)F)c12` [Example 104, (4-((4-(ethylamino)-5-(trifluoromethyl)-7H-pyrrolo[2,3-d]pyrimidine-2-yl)amino)-3-methoxyphenyl)(4-morpholinopiperidine-1-yl)methanone], the remaining binding at 1 µM in test [1] came out at 95%; in test [2] it was 100%; in test [3], 100%; in test [4], 90%; in test [5] it was 87%.

For the molecule `CNc1nc(Nc2ccc(C(=O)N3CCOCC3)cc2OC)nc2[nH]cc(C#N)c12` [Example 1, 2-((2-methoxy-4-(morpholine-4-carbonyl)phenyl)amino)-4-(methylamino)-7H-pyrrolo[2,3-d]pyrimidine-5-carbonitrile], the remaining binding at 1 µM in test [1] is 84%; in test [2], 95%; in test [3], 72%; in test [4] it was 73%; in test [5] it was 61%.
